Converted amounts (≈) assume the structure as drawn.
Tests used:
Format in all cases: cell-based
[1] = tested on: C. albicans strain ATCC14053; assay: MIC, two-fold microdilution assay, C. albicans; conditions: Candida albicans, ATCC14053, 18 h, read-out: MIC C. Albicans ATCC14053
[2] = tested on: S. aureus strain ATCC 29213; assay: MIC, two-fold microdilution assay, S. aureus; conditions: Staphylococcus aureus, ATCC29213, 18 h, read-out: MIC S. Aureus ATCC 29213
[3] = tested on: E. coli strain ATCC 25922; assay: MIC, two-fold microdilution assay, E. coli; conditions: Escherichia coli, ATCC25922, 18 h, read-out: MIC E. coli ATCC 25922
[4] = tested on: H. pylori strain SS1; assay: MIC, two-fold microdilution assay, H. pylori; conditions: Helicobacter pylori, SS1, 48 h, read-out: MIC H. pylori SS1

MIC [1] [µg/mL] | MIC [2] [µg/mL] | MIC [3] [µg/mL] | MIC [4] [µg/mL] | Compound
> 50 | 25 (≈ 105 µM) | 12.5 (≈ 52.5 µM) |  | O=C1CN(N=Cc2ccc([N+](=O)[O-])o2)C(=O)N1 [NFT, 1-(((5-nitro-2-furanyl)methylene)amino)-2,4-imidazolidinedione]
> 50 | 3.12 (≈ 13.9 µM) | 0.391 (≈ 1.73 µM) | < 0.0976 | O=C1OCCN1N=Cc1ccc([N+](=O)[O-])o1 [FZD, 3-(5-nitrofurfurylideneamino)-2-oxazolidinone]

Source: PMC9853512 (RSC Advances, 2023)
